Twelve compounds from US12398107B2, “Fungicidal nitroanilino substituted pyrazoles” (FMC Corporation, priority 2018, dated 2025) can be followed below.

Assay type in all cases: in vivo
In assay [1] the test system is Septoria tritici. As to the kind of experiment: Test A: wheat leaf blotch, preventive spray on wheat seedlings. Conditions: 50 ppm, 100 = 100% disease control, 0 = no control relative to controls; for pest or weed control at 50 ppm: Zymoseptoria tritici, read-out: Test A disease control rating (wheat leaf blotch). The text has this: (§1) General protocol for preparing test suspensions for Tests A-F: the test compounds were first dissolved in acetone in an amount equal to 3% of the final volume and then suspended at the desired concentration (in ppm) in acetone and purified water (50/50 mix by volume) containing 250 ppm of the surfactant PEG400 (polyhydric alcohol esters). The resulting test suspensions were then used in Tests A-F. The test solution was sprayed to the point of run-off on wheat seedlings. The following day the seedlings were inoculated with a spore suspension of Septoria tritici (the causal agent of wheat leaf blotch) and incubated in a saturated atmosphere at 24° C. for 48 h, and then moved to a growth chamber at 20° C. for 17 days, after which time disease ratings were made. A rating of 100 indicates 100% disease control and a rating of 0 indicates no disease control (relative to the controls). A dash (-) indicates the compound was not tested.

Assay [2] deals with Puccinia recondita f. sp. tritici. As to the kind of experiment: Test B: wheat leaf rust, preventive spray on wheat seedlings. Conditions: 50 ppm, 100 = 100% disease control, 0 = no control relative to controls; for pest or weed control at 50 ppm: read-out: Test B disease control rating (wheat leaf rust).
From the text: as §1, with “Puccinia recondita f. sp.” for “Septoria”, “rust)” for “blotch)”, “20°” for “24°”, “24” for “48”, “7” for “17”

For assay [3], the system named is Blumeria graminis f. sp. tritici. Description: Test C: wheat powdery mildew, preventive spray on wheat seedlings. The settings on record: 50 ppm, rated after 8 days, 100 = 100% disease control, 0 = no control; for pest or weed control at 50 ppm: Blumeria graminis, 192 h, read-out: Test C disease control rating (wheat powdery mildew). From the text: General protocol for preparing test suspensions for Tests A-F: the test compounds were first dissolved in acetone in an amount equal to 3% of the final volume and then suspended at the desired concentration (in ppm) in acetone and purified water (50/50 mix by volume) containing 250 ppm of the surfactant PEG400 (polyhydric alcohol esters). The resulting test suspensions were then used in Tests A-F. The test suspension was sprayed to the point of run-off on wheat seedlings. The following day the seedlings were inoculated with a spore dust of Blumeria graminis f. sp. tritici, (also known as Erysiphe graminis f. sp. tritici, the causal agent of wheat powdery mildew) and incubated in a growth chamber at 20° C. for 8 days, after which time visual disease ratings were made. A rating of 100 indicates 100% disease control and a rating of 0 indicates no disease control (relative to the controls). A dash (-) indicates the compound was not tested.

The test system of assay [4] is Phakopsora pachyrhizi. As to the kind of experiment: Test D: Asian soybean rust, preventive spray on soybean seedlings. Conditions: 50 ppm, 100 = 100% disease control, 0 = no control; for pest or weed control at 50 ppm: Phakopsora pachyrhizi, read-out: Test D disease control rating (Asian soybean rust). The text has this:
General protocol for preparing test suspensions for Tests A-F: the test compounds were first dissolved in acetone in an amount equal to 3% of the final volume and then suspended at the desired concentration (in ppm) in acetone and purified water (50/50 mix by volume) containing 250 ppm of the surfactant PEG400 (polyhydric alcohol esters). The resulting test suspensions were then used in Tests A-F.
The test solution was sprayed to the point of run-off on soybean seedlings. The following day the seedlings were inoculated with a spore suspension of Phakopsora pachyrhizi (the causal agent of Asian soybean rust) and incubated in a saturated atmosphere at 22° C. for 24 h and then moved to a growth chamber at 22° C. for 8 days, after which time visual disease ratings were made.
A rating of 100 indicates 100% disease control and a rating of 0 indicates no disease control (relative to the controls). A dash (-) indicates the compound was not tested.

The test system of assay [5] is Botrytis cinerea. Description: Test E: tomato Botrytis, preventive spray on tomato seedlings. Conditions: 50 ppm, 100 = 100% disease control, 0 = no control; for pest or weed control at 50 ppm: Botrytis cinerea, read-out: Test E disease control rating (tomato Botrytis). The text has this: (§2) General protocol for preparing test suspensions for Tests A-F: the test compounds were first dissolved in acetone in an amount equal to 3% of the final volume and then suspended at the desired concentration (in ppm) in acetone and purified water (50/50 mix by volume) containing 250 ppm of the surfactant PEG400 (polyhydric alcohol esters). The resulting test suspensions were then used in Tests A-F. The test suspension was sprayed to the point of run-off on tomato seedlings. The following day the seedlings were inoculated with a spore suspension of Botrytis cinerea (the causal agent of tomato Botrytis) and incubated in a saturated atmosphere at 20° C. for 48 h, and then moved to a growth chamber at 24° C. for 3 days, after which time visual disease ratings were made. A rating of 100 indicates 100% disease control and a rating of 0 indicates no disease control (relative to the controls). A dash (-) indicates the compound was not tested.

Assay [6] relates to Alternaria solani. As to the kind of experiment: Test F: tomato early blight, preventive spray on tomato seedlings. The settings on record: 50 ppm, 100 = 100% disease control, 0 = no control; for pest or weed control at 50 ppm: Alternaria solani, read-out: Test F disease control rating (tomato early blight).
From the text: as §2, with “Alternaria solani” for “Botrytis cinerea”, “early blight)” for “Botrytis)”, “27°” for “20°”, “20°” for “24°”

`Cc1nn(C)c(Nc2c(Cl)cc(F)cc2[N+](=O)[O-])c1-c1ccc(Cl)cc1Cl` [Compound 10]: the “Test A disease control rating (wheat leaf blotch)” value (from here on “Test A disease control rating”) in assay [1] was found to be 100%. Also, the “Test B disease control rating (wheat leaf rust)” value (shortened to “Test B disease control rating”) in assay [2] turned out to be 99%. The “Test C disease control rating (wheat powdery mildew)” value (from here on “Test C disease control rating”) in assay [3] turned out to be 48%. Besides, the “Test D disease control rating (Asian soybean rust)” value (“Test D disease control rating” below) in assay [4] was found to be 0%. Moreover, the “Test E disease control rating (tomato Botrytis)” value (“Test E disease control rating” for short) in assay [5] amounted to 68%. Moreover, the “Test F disease control rating (tomato early blight)” value (“Test F disease control rating” for short) in assay [6] is 9%.

`Cc1nn(C)c(Nc2c(F)cc(Cl)cc2[N+](=O)[O-])c1-c1ccc(Cl)cc1Cl` [Compound 11]: the “Test A disease control rating” value in assay [1] is reported as 100%. For the same compound, the “Test B disease control rating” value in assay [2] worked out at 98%. Besides, the “Test C disease control rating” value in assay [3] stood at 97%. The “Test D disease control rating” value in assay [4] is 0%. Further, the “Test E disease control rating” value in assay [5] is reported as 98%. For the same compound, in assay [6], the “Test F disease control rating” value worked out at 99%.

`Cc1nn(C)c(Nc2c(F)cccc2[N+](=O)[O-])c1-c1ccc(Cl)cc1F` [Compound 12]: the “Test A disease control rating” value in assay [1] was 100%. For the same compound, the “Test B disease control rating” value in assay [2] amounted to 99%. Besides, the “Test C disease control rating” value in assay [3] is 81%. Also, in assay [4], the “Test D disease control rating” value was 0%. For the same compound, in assay [5], the “Test E disease control rating” value worked out at 97%. The “Test F disease control rating” value in assay [6] is reported as 53%.

Take `Cc1nn(C)c(Nc2c(F)cc(F)cc2[N+](=O)[O-])c1-c1ccc(Cl)cc1F` [Compound 13]: the “Test A disease control rating” value in assay [1] was found to be 100%. Besides, the “Test B disease control rating” value in assay [2] is 99%. Besides, the “Test C disease control rating” value in assay [3] stood at 97%. Further, the “Test D disease control rating” value in assay [4] turned out to be 19%. Further, the “Test E disease control rating” value in assay [5] is reported as 68%. In assay [6], the “Test F disease control rating” value amounted to 89%.

With `Cc1ccc(Nc2c(-c3ccc(C#N)cc3Cl)c(C)nn2C)c([N+](=O)[O-])c1` [Compound 14], the “Test A disease control rating” value in assay [1] was 100%. Moreover, the “Test B disease control rating” value in assay [2] came to 97%. Moreover, in assay [3], the “Test C disease control rating” value worked out at 83%. In addition, the “Test D disease control rating” value in assay [4] amounted to 48%. Further, in assay [5], the “Test E disease control rating” value was determined as 96%. Besides, in assay [6], the “Test F disease control rating” value was 83%.

Consider `Cc1cc(Cl)c(Nc2c(-c3ccc(F)cc3F)c(C)nn2C)c([N+](=O)[O-])c1` [Compound 15], for which the “Test A disease control rating” value in assay [1] is listed as 100%. Further, the “Test B disease control rating” value in assay [2] is reported as 100%. Moreover, the “Test C disease control rating” value in assay [3] came to 98%. For the same compound, the “Test D disease control rating” value in assay [4] worked out at 61%. For the same compound, the “Test E disease control rating” value in assay [5] came out at 99%. Further, in assay [6], the “Test F disease control rating” value is 53%.

On to `CCc1nn(C)c(Nc2c(Cl)cc(C)cc2[N+](=O)[O-])c1-c1ccc(F)cc1F` [Compound 16], for which, in assay [1], the “Test A disease control rating” value is recorded as 100%. The “Test B disease control rating” value in assay [2] came out at 99%. Besides, the “Test C disease control rating” value in assay [3] is 98%. Besides, in assay [4], the “Test D disease control rating” value is 50%. Moreover, the “Test E disease control rating” value in assay [5] was determined as 99%. In addition, the “Test F disease control rating” value in assay [6] turned out to be 0%.

With `CCc1nn(C)c(Nc2c(Cl)cccc2[N+](=O)[O-])c1-c1ccc(F)cc1F` [Compound 17], the “Test A disease control rating” value in assay [1] came out at 100%. Moreover, the “Test B disease control rating” value in assay [2] came to 92%. Also, the “Test C disease control rating” value in assay [3] amounted to 94%. Further, in assay [4], the “Test D disease control rating” value was found to be 0%. In addition, the “Test E disease control rating” value in assay [5] is reported as 99%. Moreover, the “Test F disease control rating” value in assay [6] worked out at 9%.

With `Cc1nn(C)c(Nc2c(Cl)cc(F)cc2[N+](=O)[O-])c1-c1ccc(C#N)cc1Cl` [Compound 18, 3-chloro-4-[5-[(2-chloro-4-fluoro-6-nitrophenyl)amino]-1,3-dimethyl-1H-pyrazol-4-yl]benzonitrile], the pest or weed control at 50 ppm in assay [1] worked out at 100%; in assay [2], 100%; in assay [3] it was 89%; in assay [4] it was 92%; in assay [5], 100%; in assay [6] it was 99%.

Consider `Cc1nn(C)c(Nc2c(Cl)cc(F)cc2[N+](=O)[O-])c1-c1ccc(F)cc1Cl` [Compound 19, N-(2-chloro-4-fluoro-6-nitrophenyl)-4-(2-chloro-4-fluorophenyl)-1,3-dimethyl-1H-pyrazol-5-amine], for which the pest or weed control at 50 ppm in assay [1] was found to be 100%; in assay [2], 100%; in assay [3] it was 100%; in assay [4], 98%; in assay [5], 100%; in assay [6], 99%.

For `Cc1nn(C)c(Nc2ccc(F)cc2[N+](=O)[O-])c1-c1ccc(F)cc1Br` [Compound 20], the “Test A disease control rating” value in assay [1] stood at 100%. Besides, in assay [2], the “Test B disease control rating” value came to 89%. Besides, the “Test C disease control rating” value in assay [3] came out at 92%. Also, the “Test D disease control rating” value in assay [4] is 0%. In addition, the “Test E disease control rating” value in assay [5] is 99%. For the same compound, the “Test F disease control rating” value in assay [6] is 26%.

As for `Cc1nn(C)c(Nc2ccc(Br)cc2[N+](=O)[O-])c1-c1ccc(F)cc1Br` [Compound 21], in assay [1], the “Test A disease control rating” value is 100%. For the same compound, the “Test B disease control rating” value in assay [2] is 86%. For the same compound, in assay [3], the “Test C disease control rating” value amounted to 84%. Besides, the “Test D disease control rating” value in assay [4] is recorded as 0%. In addition, the “Test E disease control rating” value in assay [5] was 95%. Besides, the “Test F disease control rating” value in assay [6] stood at 17%.
